Legend:
Format in all cases: in vivo, C57BL/6 mice
[1] = system: IBD model mice (DSS-induced enteritis); assay: DSS-induced colitis (IBD) model mice, Example 1: intravenous peptide on 6th and 7th days; body weight and large intestine length; details: 9th day of DSS drinking, 5 mg/kg i.v. on 6th and 7th days, n=3
Procedure: Dextran sulfate sodium (DSS) (molecular weight 5,000 to 6,000, manufactured by Nacalai Tesque, catalog No. 10930-94) was dissolved in water to prepare a 3% (w/v) DSS aqueous solution. A peptide consisting of amino acid residues 1-44 of the human-derived HMGB1 protein (SEQ ID NO: 1) was chemically synthesized by a solid-phase method. Hereinafter, the HMGB1 fragment peptide is referred to as the HMGB1 peptide (1-44) and is expressed as an abbreviation “1-44” in the drawings corresponding to the Examples. […]
(§1) The IBD model mice produced as described above were divided into the HMGB1 peptide (1-44) administration group (n=3) and the control group (n=3). […] Hereinafter, “the Xth day after the start of drinking the DSS aqueous solution” is expressed as an abbreviation “the Xth day of DSS drinking”.
(§2) The body weight of the mice was measured daily from the start of drinking the DSS aqueous solution until the removal of the large intestine. On the 9th day of DSS drinking, the large intestine was excised from the mice, and the length of the large intestine was measured. mRNA was extracted from the terminal part near the anus in the excised large intestine, and the expression level of inflammatory cytokines (TNF-α, IL-1β, and IL-6) was analyzed by quantitative PCR.

[2] = system: TNF-α; assay: Example 1: inflammatory cytokine mRNA in large intestine by quantitative PCR (TNF-α); details: 9th day of DSS drinking, 5 mg/kg i.v. on 6th and 7th days, FIG. 3
Text: (§3) Colitis was induced in C57BL/6 mice (8 to 10-week-old, male, body weight about 20 g) by allowing them to freely drink the 3% DSS aqueous solution in place of purified water (RO water) (drinking of the DSS aqueous solution was continued until the removal of the large intestine). Mice that were allowed to freely drink purified water (RO water) (hereinafter, referred to as “normal mice”) were used as comparative subjects.
as §1, §2

[3] = system: IL-1β; assay: Example 1: inflammatory cytokine mRNA in large intestine by quantitative PCR (IL-1β); details: 9th day of DSS drinking, 5 mg/kg i.v. on 6th and 7th days, FIG. 3
Text: as §3, §1, §2

[4] = system: IL-6; assay: Example 1: inflammatory cytokine mRNA in large intestine by quantitative PCR (IL-6); details: 9th day of DSS drinking, 5 mg/kg i.v. on 6th and 7th days, FIG. 3
Text: as §3, §1, §2

[5] = system: IBD model mice (DSS-induced enteritis); assay: DSS-induced colitis (IBD) model mice, Example 2: intravenous peptide on 1st, 3rd, 5th and 7th days; body weight, large intestine length, HE staining; details: 10th day of DSS drinking, 5 mg/kg i.v. on 1st
Procedure: as §3
(§4) The DSS aqueous solution and the HMGB1 peptide (1-44) were prepared and the inflammatory bowel disease model mice were produced in the same way as Example 1.
The IBD model mice produced as described in Example 1 were divided into the HMGB1 peptide (1-44) administration group (n=3) and the control group (n=3). The test substance was administered by injecting an HMGB1 peptide (1-44) solution, which has been adjusted to a concentration of 0.5 mg/ml with saline as the vehicle, into the vein at a dose of 200 μl/animal (5 mg/kg as the peptide dose) on the 1st, 3rd, 5th, and 7th days of DSS drinking. In the control group, saline was injected into the vein at a dose of 200 μl/animal on the 1st, 3rd, 5th, and 7th days of DSS drinking. No substance was administered to the normal mice (n=3).
The body weight of the mice was measured daily from the start of drinking the DSS aqueous solution until the removal of the large intestine. On the 10th day of DSS drinking, the large intestine was excised from the mice, and the length of the large intestine was measured. Tissue sections of the cross-section of the intestinal tract were produced using the terminal part near the anus of the excised large intestine, and hematoxylin-eosin (HE) staining was performed.

[6] = system: IBD model mice (DSS-induced enteritis); assay: DSS-induced colitis (IBD) model mice, Example 3: peptide-containing hydrogel embedded on the back; body weight, large intestine length; details: 10th day of DSS drinking, MedGel PI5 hydrogel with 20 μl of 5 μg/μl peptide embedded on the back one day before DSS, n=3
Procedure: as §3, §4
A bioabsorbable hydrogel (MedGel (registered trademark) PI5, manufactured by MedGEL CO., LTD) cut into a size of about 5 mm×5 mm was soaked with 20 μl of an HMGB1 peptide (1-44) solution, which has been adjusted to a concentration of 5 μg/μl with saline as the vehicle, by dripping and allowed to stand under ice-cooling for 30 minutes. The resulting hydrogel was used for embedding in the mice of the HMGB1 peptide (1-44) administration group. […]
The body weight of the mice was measured daily from the start of drinking the DSS aqueous solution until the removal of the large intestine. On the 10th day of DSS drinking, the large intestine was excised from the mice, and the length of the large intestine was measured.

## HMGB1 peptide (1-44): peptide consisting of amino acid residues 1-44 of the human-derived HMGB1 protein (SEQ ID NO: 1), chemically synthesized by a solid-phase method (MGKGDPKKPRGKMSSYAFFVQTCREEHKKKHPDASVNFSEFSKK)
[1]; FIG. 1
  body weight vs control group: significantly higher than that of the control group
[1]; FIG. 2
  length of the large intestine vs control group: significantly longer than that of the control group
[2]
  expression level of TNF-α in the large intestine vs control group: significantly lower than that of the control group
[3]
  expression level of IL-1β in the large intestine vs control group: significantly lower than that of the control group
[4]
  expression level of IL-6 in the large intestine vs control group: significantly lower than that of the control group
[5]; FIG. 6
  mucosal tissue damage of the large intestine (HE staining): damage of the mucosal tissue was suppressed
[5]; n=3, FIG. 4
  body weight vs control group: significantly higher than that of the control group
[5]; n=3, FIG. 5
  length of the large intestine vs control group: significantly longer than that of the control group
[6]; FIG. 7
  body weight vs control group: higher than that of the control group
[6]; FIG. 8
  length of the large intestine vs control group: longer than that of the control group

Source: patent US11298403B2, “Therapeutic agent for inflammatory bowel disease” (StemRIM Inc., priority 2017, dated 2022)
